Measurements as given in ChEMBL document CHEMBL1201862, “PubChem BioAssay data set” (2004).
Activity calls are given as the source filed them.

Tests used:
Cytochrome P450 1A2 = molecular target: T1, Cytochrome P450 1A2 (Homo sapiens, UniProt P05177);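 also: PubChem cytochrome P450 panel assay, CYP1A2 panel member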
T1 sequence (P05177 whole entry): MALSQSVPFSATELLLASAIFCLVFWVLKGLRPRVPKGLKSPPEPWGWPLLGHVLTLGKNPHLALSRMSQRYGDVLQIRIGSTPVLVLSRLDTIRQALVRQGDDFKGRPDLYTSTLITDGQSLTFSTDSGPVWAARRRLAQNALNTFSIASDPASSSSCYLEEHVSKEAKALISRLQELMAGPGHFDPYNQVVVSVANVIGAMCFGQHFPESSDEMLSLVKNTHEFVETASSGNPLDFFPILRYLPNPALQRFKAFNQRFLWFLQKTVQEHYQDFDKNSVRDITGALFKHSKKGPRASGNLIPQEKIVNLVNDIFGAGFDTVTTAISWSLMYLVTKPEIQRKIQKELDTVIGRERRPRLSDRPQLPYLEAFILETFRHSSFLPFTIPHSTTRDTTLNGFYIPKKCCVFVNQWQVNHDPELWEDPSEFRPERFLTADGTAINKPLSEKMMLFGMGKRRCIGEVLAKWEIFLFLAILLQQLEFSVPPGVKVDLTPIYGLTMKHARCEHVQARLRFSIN

[1] = molecular target: Luciferin 4-monooxygenase (Photinus pyralis, UniProt P08659); test: firefly luciferase enzyme inhibitors, dose response, biochemical, luminescence (AID 1891)
Chain of Luciferin 4-monooxygenase (P08659 whole entry): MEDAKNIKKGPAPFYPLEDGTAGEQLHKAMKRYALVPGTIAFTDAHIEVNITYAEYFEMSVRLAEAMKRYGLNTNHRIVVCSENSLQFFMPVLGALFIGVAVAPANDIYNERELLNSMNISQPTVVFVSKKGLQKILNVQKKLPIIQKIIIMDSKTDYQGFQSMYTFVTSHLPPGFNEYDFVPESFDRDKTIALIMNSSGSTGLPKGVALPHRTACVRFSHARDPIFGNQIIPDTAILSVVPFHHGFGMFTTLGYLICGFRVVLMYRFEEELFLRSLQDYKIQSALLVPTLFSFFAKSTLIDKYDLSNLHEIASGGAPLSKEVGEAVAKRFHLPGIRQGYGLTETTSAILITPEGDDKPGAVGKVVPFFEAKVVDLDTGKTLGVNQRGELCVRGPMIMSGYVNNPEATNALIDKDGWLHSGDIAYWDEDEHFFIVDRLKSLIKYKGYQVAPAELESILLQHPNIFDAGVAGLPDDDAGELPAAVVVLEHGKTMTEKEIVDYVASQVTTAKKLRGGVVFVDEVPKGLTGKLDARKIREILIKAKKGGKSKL

[2] = Luminescence Cell-Based Dose Confirmation HTS to Identify Inhibitors of Platelet Dense Granule Release. [Related pubchem assays: 1663 (Primary HTS), 1678 (Summary of Project)]; assay type: functional
[3] = inhibitors of firefly luciferase expression or activity, dose response, H4 neuroglioma cells, luminescence (AID 1990); assay type: functional, cell-based
[4] = Luminescence Cell-Based Dose Response HTS to Identify Inhibitors of 5'UTR Stem-Loop Driven Prion Protein mRNA Translation in H4 Neuroglioblastoma Cells. [Related pubchem assays: 1827 (Project Summary), 1813 (Primary HTS)]; assay type: functional
[5] = inhibitors of SNCA 5'UTR-driven reporter translation, confirmation, H4 neuroglioma cells, luminescence (AID 1988); assay type: functional, cell-based
Cytochrome P450 2C9 = Cytochrome P450 2C9 (Homo sapiens, UniProt P11712)
Chain of Cytochrome P450 2C9 (P11712 whole entry): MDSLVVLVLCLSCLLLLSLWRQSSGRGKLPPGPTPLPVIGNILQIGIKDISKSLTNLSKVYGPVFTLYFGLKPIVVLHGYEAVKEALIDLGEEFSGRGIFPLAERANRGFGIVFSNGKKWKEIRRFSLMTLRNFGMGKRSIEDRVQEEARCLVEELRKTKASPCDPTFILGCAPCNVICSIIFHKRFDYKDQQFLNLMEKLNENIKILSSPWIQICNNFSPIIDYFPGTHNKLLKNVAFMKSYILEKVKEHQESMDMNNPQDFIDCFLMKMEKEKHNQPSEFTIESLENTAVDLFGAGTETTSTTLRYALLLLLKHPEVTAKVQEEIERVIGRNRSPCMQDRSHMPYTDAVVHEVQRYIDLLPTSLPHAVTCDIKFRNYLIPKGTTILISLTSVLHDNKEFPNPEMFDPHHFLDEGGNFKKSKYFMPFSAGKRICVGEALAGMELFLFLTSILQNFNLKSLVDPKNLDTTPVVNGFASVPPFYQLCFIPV

[6] = Luminescence Cell-Based Dose Retest to Confirm Inhibitors of Cancer Stem Cells. [Related pubchem assays (depositor defined):AID2717, AID2721]; assay type: functional; conditions: Homo sapiens
Cytochrome P450 2D6 = Cytochrome P450 2D6 (Homo sapiens, UniProt P10635);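 also: CYP2D6 member of a cytochrome P450 panel assay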
Chain of Cytochrome P450 2D6 (P10635 whole entry): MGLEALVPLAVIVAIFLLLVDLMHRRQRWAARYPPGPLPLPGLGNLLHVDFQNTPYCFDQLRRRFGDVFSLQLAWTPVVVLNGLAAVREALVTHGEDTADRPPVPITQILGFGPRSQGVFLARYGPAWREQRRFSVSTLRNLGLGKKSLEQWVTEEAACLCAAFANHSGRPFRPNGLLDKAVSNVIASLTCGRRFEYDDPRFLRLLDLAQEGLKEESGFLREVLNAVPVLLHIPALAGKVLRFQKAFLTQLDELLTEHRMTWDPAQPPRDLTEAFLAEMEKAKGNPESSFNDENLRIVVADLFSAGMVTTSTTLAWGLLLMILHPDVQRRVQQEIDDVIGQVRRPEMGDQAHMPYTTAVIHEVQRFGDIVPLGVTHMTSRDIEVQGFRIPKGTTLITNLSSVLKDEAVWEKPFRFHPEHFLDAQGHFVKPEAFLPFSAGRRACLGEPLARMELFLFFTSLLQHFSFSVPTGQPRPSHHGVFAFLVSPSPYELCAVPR

[7] = Shn3 3'UTR reporter inhibitors, dose response, cell-based, Clone20 osteoblasts, firefly luciferase, cherry-picked (AID 624132); assay type: functional;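 also: firefly luciferase luminescence from reporter carrying the Shn3 3'UTR in osteoblasts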
[8] = control 3'UTR Renilla luciferase suppression, dose response, counter-screen for Shn3 inhibitor project, cell-based, Clone20-Shn3RL, cherry-picked (AID 624133); assay type: functional
Paired box protein Pax-8 = Paired box protein Pax-8 (Homo sapiens, UniProt Q06710); test: inhibitors of PAX8-driven TPO luciferase reporter, dose response, RMG-I cells, cherry-pick (AID 687027); assay type: functional, cell-based;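 also: luciferase reporter driven by Pax8 target thyroperoxidase promoter measured by SteadyGlo luminescence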
Chain of Paired box protein Pax-8 (Q06710 whole entry, the tested form may be a part): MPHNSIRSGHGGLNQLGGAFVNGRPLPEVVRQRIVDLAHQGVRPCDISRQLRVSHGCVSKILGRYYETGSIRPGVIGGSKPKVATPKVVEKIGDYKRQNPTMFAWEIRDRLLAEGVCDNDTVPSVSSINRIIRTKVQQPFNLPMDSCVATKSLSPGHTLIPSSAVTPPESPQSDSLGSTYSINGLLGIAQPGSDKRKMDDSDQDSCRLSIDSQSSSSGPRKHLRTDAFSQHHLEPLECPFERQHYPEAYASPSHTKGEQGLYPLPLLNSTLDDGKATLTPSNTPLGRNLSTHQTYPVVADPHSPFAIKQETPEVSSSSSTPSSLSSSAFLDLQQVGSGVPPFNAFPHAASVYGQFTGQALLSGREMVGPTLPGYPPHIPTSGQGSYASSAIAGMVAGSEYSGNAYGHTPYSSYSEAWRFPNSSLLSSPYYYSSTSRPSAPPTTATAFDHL

[9] = molecular target: T2, RNA-binding protein pos-1 (Caenorhabditis elegans, UniProt G5EF15); test: inhibitors of POS-1/mex-3 RNA binding, dose response, biochemical, fluorescence polarization (AID 1964);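 also: purified POS-1 fused to maltose binding protein made in E. coli; potency of compounds blocking POS-1 binding to fluorescent RNA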
T2 sequence (G5EF15 whole entry): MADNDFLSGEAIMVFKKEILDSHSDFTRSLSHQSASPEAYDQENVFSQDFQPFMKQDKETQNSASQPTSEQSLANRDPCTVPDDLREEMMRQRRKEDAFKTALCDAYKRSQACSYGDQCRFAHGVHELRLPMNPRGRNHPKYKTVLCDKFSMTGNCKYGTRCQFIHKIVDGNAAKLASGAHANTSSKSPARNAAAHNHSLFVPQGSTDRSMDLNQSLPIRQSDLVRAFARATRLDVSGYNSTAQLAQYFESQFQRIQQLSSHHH

[10] = molecular target: T3, Zinc finger protein mex-5 (Caenorhabditis elegans, UniProt Q9XUB2); test: MEX-5/TCR-2 RNA interaction inhibitors, dose response, biochemical, C. elegans, fluorescence polarization (AID 1960)
T3 sequence (Q9XUB2 whole entry): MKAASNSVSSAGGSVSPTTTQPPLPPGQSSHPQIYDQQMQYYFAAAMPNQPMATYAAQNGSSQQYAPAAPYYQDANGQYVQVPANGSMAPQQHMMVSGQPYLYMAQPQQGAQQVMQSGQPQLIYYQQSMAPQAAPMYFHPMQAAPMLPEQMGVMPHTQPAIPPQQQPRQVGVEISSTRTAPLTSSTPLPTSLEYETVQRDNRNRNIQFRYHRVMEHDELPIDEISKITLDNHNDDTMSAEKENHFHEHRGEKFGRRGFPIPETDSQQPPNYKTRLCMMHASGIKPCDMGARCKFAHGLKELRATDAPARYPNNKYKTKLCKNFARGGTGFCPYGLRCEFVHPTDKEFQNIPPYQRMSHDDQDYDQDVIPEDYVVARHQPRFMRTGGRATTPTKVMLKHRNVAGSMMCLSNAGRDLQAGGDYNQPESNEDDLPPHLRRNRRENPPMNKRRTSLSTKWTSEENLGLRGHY

Cytochrome P450 2C19 = Cytochrome P450 2C19 (Homo sapiens, UniProt P33261); test: Cytochrome panel assay with activity outcomes. Panel member name: p450-cyp2c19 Compounds with AC50 equal or less than 10 uM are considered active; assay type: functional
Chain of Cytochrome P450 2C19 (P33261 whole entry): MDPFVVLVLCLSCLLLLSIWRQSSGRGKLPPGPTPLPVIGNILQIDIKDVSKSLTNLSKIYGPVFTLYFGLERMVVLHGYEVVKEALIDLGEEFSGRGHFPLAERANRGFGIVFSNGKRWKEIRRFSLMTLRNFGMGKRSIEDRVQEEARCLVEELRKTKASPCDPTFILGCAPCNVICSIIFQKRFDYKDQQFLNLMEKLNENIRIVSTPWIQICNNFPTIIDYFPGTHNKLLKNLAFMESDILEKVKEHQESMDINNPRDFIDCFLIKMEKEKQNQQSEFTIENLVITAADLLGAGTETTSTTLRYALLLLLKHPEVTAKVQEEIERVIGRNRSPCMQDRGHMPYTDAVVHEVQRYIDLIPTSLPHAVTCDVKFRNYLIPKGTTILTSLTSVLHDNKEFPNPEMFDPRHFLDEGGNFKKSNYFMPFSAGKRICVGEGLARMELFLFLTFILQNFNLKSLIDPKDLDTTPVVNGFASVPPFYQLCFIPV

[11] = Luminescence Cell-Based Dose Confirmation HTS to Identify Activators of 5'UTR Stem-Loop Driven Alpha-Synuclein mRNA Translation in H4 Neuroglioblastoma Cells. [Related pubchem assays: 1829 (Project Summary), 1814 (Primary HTS)]; assay type: functional
[12] = Luminescence Cell-Based Dose Response HTS to Identify Activators of Luciferase Translation or Activity in H4 […] Cells. [Related pubchem assays: 1829 (Project Summary), 1814 (Primary HTS)]; assay type: functional
H4 = test: Luminescence Cell-Based Dose Response HTS to Identify Activators of 5'UTR Stem-Loop Driven Prion Protein mRNA Translation in H4 Neuroglioblastoma Cells. [Related pubchem assays: 1829 (Project Summary), 1814 (Primary HTS)]; assay type: functional; conditions: Homo sapiens
cells = assay type: functional
Cytochrome P450 3A4 = Cytochrome P450 3A4 (Homo sapiens, UniProt P08684);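 also: CYP3A4 tested as one member of a cytochrome P450 panel screen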
Chain of Cytochrome P450 3A4 (P08684 whole entry): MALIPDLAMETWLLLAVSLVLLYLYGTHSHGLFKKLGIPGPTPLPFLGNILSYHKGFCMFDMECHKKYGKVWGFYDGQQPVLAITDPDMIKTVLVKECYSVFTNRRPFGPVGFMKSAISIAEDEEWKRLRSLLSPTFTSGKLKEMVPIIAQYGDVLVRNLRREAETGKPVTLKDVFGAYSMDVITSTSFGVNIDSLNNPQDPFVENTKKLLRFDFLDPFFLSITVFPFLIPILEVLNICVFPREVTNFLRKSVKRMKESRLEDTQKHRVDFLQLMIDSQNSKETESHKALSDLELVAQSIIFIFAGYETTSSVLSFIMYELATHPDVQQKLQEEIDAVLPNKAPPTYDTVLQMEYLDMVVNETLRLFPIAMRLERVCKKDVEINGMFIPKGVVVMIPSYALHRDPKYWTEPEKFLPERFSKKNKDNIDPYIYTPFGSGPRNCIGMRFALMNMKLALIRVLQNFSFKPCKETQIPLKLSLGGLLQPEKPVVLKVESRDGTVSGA

O=c1c2ccccc2c2ccccc2c(=O)n1-c1cc2c3ccccc3ccc2c2ccccc12
AC50 (Cytochrome P450 1A2): 6.31 µM (inconclusive)

COc1ccc(C(=O)Nc2ccccc2C(=O)Nc2cccnc2)cc1
EC50 [1]: 1.61 µM (active)
EC50 [2]: 6.59 µM (active)

COc1ccc(C)cc1N(C(=O)c1ccccc1F)c1nc2ccccc2s1
EC50 [3]: > 120 µM (not active)
EC50 [4]: > 120 µM (not active)
EC50 [5]: > 120 µM (not active)

CCc1ccc2c(c1)cc(CN(C(S)=Nc1cccc(C)c1)C1CC1)c1nnnn12
AC50 (Cytochrome P450 1A2): 12.6 µM (inconclusive)
AC50 (Cytochrome P450 2C9): 2.82 µM (inconclusive)

COC(=O)c1ccc(/C=C/c2c(-c3ccc(OC)cc3)oc3ccccc23)cc1
AC50 [6]: 2.47 µM (active)

CCc1ccc(Oc2coc3cc(OCC(=O)Nc4cc(C)ccc4C)ccc3c2=O)cc1
EC50 [3]: 18.5 µM (active)
EC50 [4]: 14.8 µM (active)
EC50 [5]: 9.97 µM (active)

O=C(CCc1ccccc1)NCc1cccnc1
AC50 (Cytochrome P450 1A2): 31.6 µM (inconclusive)
AC50 (Cytochrome P450 2C9): 1 µM (inconclusive)

OC(CSc1ccccc1Cl)CN1CCN(c2ccc(F)cc2)CC1 (configuration not stated)
EC50 [3]: > 120 µM (not active)
EC50 [4]: > 120 µM (not active)
EC50 [5]: > 120 µM (not active)

CC(=O)Nc1ccc(S(=O)(=O)N2CCC(C(=O)NCc3ccco3)CC2)cc1
EC50 [1]: > 112 µM (not active)
EC50 [2]: > 112 µM (not active)

CCC(NC(=O)C1(C)CC1(Br)Br)c1ccc(C)cc1 (configuration not stated)
AC50 (Cytochrome P450 2D6): 7.94 µM (inconclusive)
AC50 (Cytochrome P450 1A2): 20 µM (inconclusive)

Cc1ccccc1NC(=O)c1cc(S(=O)(=O)N2CCOCC2)cn1C
EC50 [1]: > 112 µM (not active)
EC50 [2]: > 112 µM (not active)

Cc1ccnc(N/C=C(/NC(=O)c2ccccc2)C(=O)N/N=C\c2ccc(F)cc2)n1
AC50 [7]: > 70 µM (inactive)
AC50 [8]: 26.8 µM (active)

O=C(c1cnc2ccc3ccccc3c2c1)c1cc(F)ccc1O
AC50 [6]: 0.562 µM (active)

N=C(NOC(=O)c1ccccc1Cl)c1cccnc1
EC50 [1]: 23.6 µM (active)
EC50 [2]: > 112 µM (not active)

O=C(CSCc1ccccc1)Nc1cccc(C(=O)Nc2ccccc2C(=O)O)c1
AC50 (Cytochrome P450 1A2): 15.8 µM (inconclusive)

C[C@@H]1CN([C@@H](C)CO)C(=O)Cc2cc(NC(=O)c3ccncc3)ccc2O[C@@H]1CN(C)Cc1ccc(-c2ccccc2)cc1
AC50 (Paired box protein Pax-8): 22.3 µM (active)

CC(c1ccccc1)N1C(=O)/C(=C/c2ccncc2)SC1=S (configuration not stated)
AC50 [6]: 19 µM (active)

CCOC(=O)c1cc(-c2ccccc2)sc1NC(=S)Nc1cc(C)ccn1
EC50 [9]: 11.1 µM (inconclusive)
EC50 [10]: 0.77 µM (inconclusive)
AC50 (Cytochrome P450 2C19; read-out: AC50): 6.31 µM (inconclusive)
AC50 (Cytochrome P450 1A2): 3.55 µM (inconclusive)
AC50 (Cytochrome P450 2C9): 5.62 µM (inconclusive)

COC(=O)[C@@]1(Cc2ccc(F)cc2)[C@H]2c3cc(C(=O)N4CCCC4)n(Cc4cccc5ccccc45)c3C[C@H]2CN1C(=O)c1ccccc1
AC50 (Cytochrome P450 2C19; read-out: AC50): 7.94 µM (inconclusive)
AC50 (Cytochrome P450 1A2): 15.8 µM (inconclusive)

COc1ccc(C(=O)/C=C2/C(=O)Nc3ccccc32)cc1
EC50 [11]: 18.1 µM (active)
EC50 [12]: > 120 µM (not active)
EC50 (H4): 17.1 µM (active)
AC50 [6]: 4.39 µM (active)

c1ccc2[nH]c(-c3cscn3)nc2c1 [THIABENDAZOLE]
EC50 [11]: 14.3 µM (active)
EC50 [12]: 18.7 µM (active)
EC50 (H4): 23.7 µM (active)
AC50 (Cytochrome P450 2C19; read-out: AC50): 7.94 µM (inconclusive)
AC50 (Cytochrome P450 2D6): 10 µM (inconclusive)
AC50 (Cytochrome P450 1A2): 0.126 µM (active)

O=C(Nc1ccccc1)OC[C@H](CN1CCCCC1)OC(=O)Nc1ccccc1
AC50 (Cytochrome P450 2C19; read-out: AC50): 5.01 µM (inconclusive)
AC50 (Cytochrome P450 1A2): 12.6 µM (inconclusive)

C[C@@H]1CCCCO[C@H](CN(C)Cc2ccc(C(F)(F)F)cc2)[C@H](C)CN([C@@H](C)CO)C(=O)c2cc(NC(=O)Nc3ccc(F)cc3)ccc2O1
AC50 (Paired box protein Pax-8): 8.21 µM (active)

Cc1nc2ccccc2nc(C)c1=NO
AC50 (Cytochrome P450 2C19): inconclusive
AC50 (Cytochrome P450 1A2): 17.8 µM (inconclusive)

COc1cccc(/N=c2\oc3c(C)ncc(CO)c3cc2C(=O)Nc2ccccc2OC)c1
EC50 [3]: > 120 µM (not active)
EC50 [4]: > 120 µM (not active)
EC50 [5]: > 120 µM (not active)

O=C1NCCCC1C(=O)Nc1ccccc1C(F)(F)F (configuration not stated)
AC50 (Cytochrome P450 1A2): 39.8 µM (inconclusive)

N[C@H](C(=O)O)[C@H](OCc1ccccc1)C(=O)O
AC50 (Cytochrome P450 1A2): 31.6 µM (inconclusive)

O=C(N[C@@H](c1ccccc1)[C@@H]1C[C@H]1C(=O)NCc1ccccn1)OCc1ccccc1
AC50 (Cytochrome P450 1A2): 10 µM (inconclusive)
AC50 (Cytochrome P450 2C9): 20 µM (inconclusive)

Cc1c(Cc2ccccc2)sc(NC(=O)/C=C/c2cccc3ccccc23)c1C(N)=O
EC50 [3]: 13.3 µM (inconclusive)
EC50 [4]: 10.9 µM (active)
EC50 [5]: 5.84 µM (active)

c1ccc(CN2CC[C@@H](CNc3ncnc4ccccc34)C2)cc1
AC50 (Cytochrome P450 1A2): 6.31 µM (inconclusive)

CC(C)c1ccc(/C=N/NC(=O)c2ccccn2)cc1
AC50 [6]: 19.5 µM (active)
IC50 (cells): 6.08 µM (active)

Cc1cccc(NC(=O)CCCNC(=O)c2ccc(Cl)cc2)n1
EC50 [1]: > 112 µM (not active)
EC50 [2]: 16 µM (active)

C=CCNc1nc(N)c([N+](=O)[O-])c(N2CCCCCC2)n1
EC50 [3]: > 120 µM (not active)
EC50 [4]: > 120 µM (not active)
EC50 [5]: 26.7 µM (active)

COc1ccc(S(=O)(=O)N2CCN(Cc3ccc4c(c3)OCO4)CC2)c2ccccc12
EC50 [1]: > 112 µM (not active)
EC50 [2]: > 112 µM (not active)

COc1cccc(OCCCOc2ccccc2C(C)C)c1
AC50 (Cytochrome P450 1A2): 22.4 µM (inconclusive)
AC50 (Cytochrome P450 3A4): 0.0178 µM (inconclusive)
AC50 (Cytochrome P450 2C9): 25.1 µM (inconclusive)

CC(=O)N1CCC2(CCN(Cc3cc(C(F)(F)F)cc(C(F)(F)F)c3)CC2)CC1
AC50 (Cytochrome P450 1A2): 15.8 µM (inconclusive)
